Reference: ChEMBL document CHEMBL4359816, “Discovery and Optimization of Quinolinone Derivatives as Potent, Selective, and Orally Bioavailable Mutant Isocitrate Dehydrogenase 1 (mIDH1) Inhibitors” (J Med Chem, 2019)
≈ marks a conversion by molar mass, not a printed value.

Legend:
[1] = Metabolic stability in human liver microsomes assessed as compound remaining after 30 mins; format: ADME, Microsome; conditions: read-out: Stability
[2] = Kinetic solubility of the compound; format: physicochemical; conditions: read-out: Kinetic_solubility
[3] = Metabolic stability in mouse liver microsomes assessed as compound remaining after 30 mins; format: ADME, Microsome; conditions: read-out: Stability
[4] = molecular target: T1, Isocitrate dehydrogenase [NADP] cytoplasmic (Homo sapiens, UniProt O75874, R132C); assay: Inhibition of human Myc-DDK-tagged IDH1 R132C mutant assessed as reduction in NADPH consumption pre-incubated for 15 mins followed by alpha-ketoglutarate substrate and NADPH addition after 45 mins by diaphorase and resazurin dye based assay
T1 sequence (O75874 2-414 R132C limits assumed): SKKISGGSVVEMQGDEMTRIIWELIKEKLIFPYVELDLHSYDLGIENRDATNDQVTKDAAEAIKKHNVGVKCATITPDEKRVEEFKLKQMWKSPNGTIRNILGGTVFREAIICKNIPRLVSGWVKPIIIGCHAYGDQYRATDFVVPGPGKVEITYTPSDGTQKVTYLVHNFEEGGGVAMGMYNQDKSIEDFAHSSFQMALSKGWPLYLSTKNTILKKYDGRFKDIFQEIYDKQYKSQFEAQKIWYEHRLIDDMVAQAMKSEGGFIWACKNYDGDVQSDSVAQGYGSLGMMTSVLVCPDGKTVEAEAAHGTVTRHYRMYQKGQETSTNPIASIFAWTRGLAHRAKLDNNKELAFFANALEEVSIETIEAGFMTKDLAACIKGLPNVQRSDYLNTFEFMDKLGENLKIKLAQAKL

[5] = molecular target: T1, Isocitrate dehydrogenase [NADP] cytoplasmic; assay: Inhibition of IDH1 R132C mutant in human HCT116 cells assessed as reduction in 2-HG levels after 24 hrs by RapidFire high-throughput mass spectrometry assay; format: cell-based
[6] = Metabolic stability in rat liver microsomes assessed as compound remaining after 30 mins; format: ADME, Microsome; conditions: read-out: Stability
[7] = Octanol/aqueous buffer partition coefficient, log D of the compound at pH 7.4; format: physicochemical

SMILES | remaining at 0.5 h [1] [%] | solubility kinetic [2] [µM] | remaining at 0.5 h [3] [%] | IC50 [4] [nM] | IC50 [5] [nM] | remaining at 0.5 h [6] [%] | logD [7]
COc1cc(NCc2cc3cc(Cl)ccc3[nH]c2=O)ccc1S(C)(=O)=O | 100 | 32.5 (≈ 12.8 µg/mL) | 81 |  |  |  | 
COc1cc(NCc2cc3ccccc3[nH]c2=O)ccc1-n1cnnn1 | 88 | 0.93 (≈ 0.324 µg/mL) | 69.4 |  |  |  | 
COc1cc(NCc2cc3cc(Cl)cc(OCc4ccccn4)c3[nH]c2=O)ccc1C#N |  |  |  | 3480 |  |  | 
COc1nc(N[C@@H](C)c2cc3cc(Cl)c(OCC4CC4)cc3[nH]c2=O)ncc1C#N | 100 | < 0.1 |  | 53 | 54 | 100 | 
COc1nc(N[C@@H](C)c2cc3cc(Cl)c(C4CC4)cc3[nH]c2=O)ncc1C#N | 93 | 0.4 (≈ 0.158 µg/mL) |  | 305 | 195 | 68 | 
COc1cc(NCc2cc3cc(C(C)(C)C)ccc3[nH]c2=O)ccc1C#N | 6 | < 0.1 | 3.9 |  |  |  | 
COc1cc(NCc2cc3cc(Cl)ccc3[nH]c2=O)ccc1-n1cnnn1 | 93.9 | < 0.01 | 89.9 |  |  |  | 
COc1cc2[nH]c(=O)c(CNc3ccc(C#N)c(OC)c3)cc2cc1Cl | 1 | < 0.1 | 94.9 | 667 |  |  | 
COc1nc(N[C@@H](C)c2cc3cc(Cl)ccc3[nH]c2=O)ccc1C#N | 82 | 0.08 (≈ 0.0284 µg/mL) |  | 190 | 92 |  | 3.47
N#Cc1ccc(NCc2cc3cc(Cl)ccc3[nH]c2=O)cc1F | 100 | < 0.1 | 49 |  |  |  | 
COc1cc(NCc2cc3cc(C)c(C)cc3[nH]c2=O)ccc1-n1cnnn1 | 17.6 | 0.04 (≈ 0.0151 µg/mL) | 27.9 |  |  |  | 
N#Cc1ccc(NCc2cc3cc(Cl)ccc3[nH]c2=O)cc1C(F)(F)F | 100 | < 0.1 | 100 |  |  |  | 
COc1cc(NCc2cc3cc(F)ccc3[nH]c2=O)ccc1C#N | 81 | 3.32 (≈ 1.07 µg/mL) | 46 |  |  |  | 
COc1cc(NCc2cc3cc(Cl)c(OCC4CCCCN4C)cc3[nH]c2=O)ccc1C#N (configuration not stated) | 0 | 1.35 (≈ 0.63 µg/mL) | 10.7 | 1280 |  |  | 
COc1cc(NCc2cc3cc(Cl)ccc3[nH]c2=O)cc(OC)c1C#N | 80 | < 0.1 | 59 |  |  |  | 
COc1cc(NCc2cc3cc(C)ccc3[nH]c2=O)ccc1-n1cnnn1 | 30.8 | < 0.01 | 42.3 |  |  |  | 
N#Cc1ccc(NCc2cc3cc(Cl)ccc3[nH]c2=O)cc1O | 75 | 20.9 (≈ 6.81 µg/mL) | 85 |  |  |  | 
COc1cc(NCc2cc3ccc(C)cc3[nH]c2=O)ccc1-n1cnnn1 | 9.6 | < 0.01 | 17.8 |  |  |  | 
CCOc1cc(NCc2cc3cc(Cl)ccc3[nH]c2=O)ccc1C#N | 78 | < 0.1 | 29 |  |  |  | 

SMILES | remaining at 0.5 h [1] [%] | solubility kinetic [2] [µM] | remaining at 0.5 h [3] [%] | IC50 [4] [nM] | IC50 [5] [nM] | remaining at 0.5 h [6] [%] | logD [7]
COc1cc(NCc2cc3cc(Cl)cc(OC)c3[nH]c2=O)ccc1C#N | 53 | < 0.1 | 3.4 | 88600 |  |  | 
Cc1cc(NCc2cc3cc(Cl)ccc3[nH]c2=O)ccc1C#N | 75 | < 0.1 | 49 |  |  |  | 
N#Cc1ccc(NCc2cc3cc(Cl)ccc3[nH]c2=O)nc1 | 91 | 0.42 (≈ 0.131 µg/mL) | 75 |  |  |  | 
COc1cc(NCc2cc3cc(Cl)c(OCc4ccccn4)cc3[nH]c2=O)ccc1C#N | 30 | < 0.1 | 73.4 | 225 |  |  | 
COc1cc(NCc2cc3cc(Cl)c(OC4CCN(C)CC4)cc3[nH]c2=O)ccc1C#N | 4.3 | 0.41 (≈ 0.186 µg/mL) | 78.8 | 5100 |  |  | 
Cc1nc(NC2(c3cc4cc(Cl)ccc4[nH]c3=O)CC2)ccc1C#N | 91 | < 0.1 | 77 |  |  |  | 
Cc1nc(N[C@H](C)c2cc3cc(Cl)ccc3[nH]c2=O)ccc1C#N | 100 | 8 (≈ 2.71 µg/mL) | 89 |  |  |  | 
COc1cc(NCc2cc3cc(Cl)cc(OCCN4CCOCC4)c3[nH]c2=O)ccc1C#N | 0 | < 0.1 | 2.4 | 3710 |  |  | 
COc1nc(C#N)ccc1N[C@@H](C)c1cc2cc(Cl)ccc2[nH]c1=O | 100 | 4.8 (≈ 1.7 µg/mL) | 60 | 1020 | 338 |  | 2.5
Cc1ccnc(NCc2cc3cc(Cl)ccc3[nH]c2=O)c1 | 76 | 0.88 (≈ 0.264 µg/mL) | 0.6 |  |  |  | 
COc1cc(NCc2cc3cc(Cl)c(OCCN(C)C)cc3[nH]c2=O)ccc1C#N |  | 1 (≈ 0.427 µg/mL) |  | 6250 |  |  | 
Cc1nnnn1-c1ccc(NCc2cc3cc(Cl)ccc3[nH]c2=O)cc1 | 100 | 1.2 (≈ 0.44 µg/mL) | 85 |  |  |  | 
COc1nc(N[C@@H](C)c2cc3cc(Cl)c(OCc4ccccn4)cc3[nH]c2=O)ncc1C#N | 97 | 1.5 (≈ 0.694 µg/mL) |  | 43 | 22 | 77 | 
COc1cc(NCc2cc3cc(Cl)c(OCc4cc(C)n(C)n4)cc3[nH]c2=O)ccc1C#N | 32.7 | < 0.01 | 52.7 | 317 |  |  | 
N#Cc1ccc(NCc2cc3cc(Cl)ccc3[nH]c2=O)cc1OC(F)(F)F | 72 | < 0.1 | 72 |  |  |  | 
COc1cc(NCc2cc3ccccc3[nH]c2=O)ccc1C#N | 35 | 6.13 (≈ 1.87 µg/mL) | 4.6 |  |  |  | 
Cc1cc(NCc2cc3cc(Cl)ccc3[nH]c2=O)ncc1C#N | 99 | 0.8 (≈ 0.26 µg/mL) | 75 |  |  |  | 
Cc1nc(NC(C)(C)c2cc3cc(Cl)ccc3[nH]c2=O)ccc1C#N | 81 | < 0.1 | 67 |  |  |  | 
O=c1[nH]c2ccc(Cl)cc2cc1CNc1ccc(-c2csnn2)cc1 | 82 |  | 57 |  |  |  | 

SMILES | remaining at 0.5 h [1] [%] | solubility kinetic [2] [µM] | remaining at 0.5 h [3] [%] | IC50 [4] [nM] | IC50 [5] [nM] | remaining at 0.5 h [6] [%] | logD [7]
COc1cc(NCc2cc3cc(Br)ccc3[nH]c2=O)ccc1C#N | 89 | 0.18 (≈ 0.0692 µg/mL) | 39 |  |  |  | 
COc1cc(N[C@@H](C)c2cc3cc(Cl)ccc3[nH]c2=O)ncc1C#N | 100 | 15.6 (≈ 5.53 µg/mL) | 100 |  |  |  | 3.38
N#Cc1ccc(NCc2cc3cc(Cl)ccc3[nH]c2=O)cc1 | 65 | 0.21 (≈ 0.065 µg/mL) | 53 |  |  |  | 
COc1nc(N[C@@H](C)c2cc3cc(Cl)c(F)cc3[nH]c2=O)ncc1C#N | 89 | 1.2 (≈ 0.449 µg/mL) |  | 184 | 259 | 100 | 
COc1cc(NCc2cc3cc(Cl)c(OCCN4CCOCC4)cc3[nH]c2=O)ccc1C#N | 1.1 | 0.385 (≈ 0.181 µg/mL) | 13.1 | 932 |  |  | 
COc1cc(C#N)ccc1NCc1cc2cc(Cl)ccc2[nH]c1=O | 79 | < 0.1 | 2.1 |  |  |  | 
O=c1[nH]c2ccc(Cl)cc2cc1CNc1ccc(-n2ccnc2)cc1 | 98 | 1.57 (≈ 0.551 µg/mL) | 93 |  |  |  | 
COc1cc(N[C@@H](C)c2cc3cc(Cl)ccc3[nH]c2=O)ccc1C#N | 75 | 4.1 (≈ 1.45 µg/mL) | 71 | 111 | 213 |  | 3.67
Cc1nc(NC(C)c2cc3cc(Cl)ccc3[nH]c2=O)ccc1C#N (racemic) | 100 | 12.2 (≈ 4.13 µg/mL) | 96 | 606 |  |  | 
COc1cc(NCc2cc3cc(C)ccc3[nH]c2=O)ccc1C#N | 1.2 | 1.33 (≈ 0.425 µg/mL) | 0.49 |  |  |  | 
N#Cc1ccc(NCc2cc3cc(Cl)ccc3[nH]c2=O)nc1C(F)(F)F | 94 | < 0.1 | 100 |  |  |  | 
COc1cc(NCc2cc3cc(Cl)c(OC[C@@H]4CCCN4C)cc3[nH]c2=O)ccc1C#N | 6.3 | 0.72 (≈ 0.326 µg/mL) | 48.8 | 5870 |  |  | 
COc1cc(NCc2cc3cc(Cl)ccc3n(C)c2=O)ccc1-n1cnnn1 | 63.7 | < 0.01 | 22 |  |  |  | 
COc1cc(NCc2cc3cc(Cl)c(OCCN4CCCC4=O)cc3[nH]c2=O)ccc1C#N | 2.5 | 0.53 (≈ 0.247 µg/mL) | 14.3 | 2670 |  |  | 
COc1nc(N[C@@H](C)c2cc3cc(Cl)c(OC(C)C)cc3[nH]c2=O)ncc1C#N | 100 | 0.43 (≈ 0.178 µg/mL) |  | 26 | 104 | 90 | 
Cc1nc(N[C@@H](C)c2cc3cc(Cl)ccc3[nH]c2=O)ccc1C#N | 98 | 5.7 (≈ 1.93 µg/mL) | 94 | 183 | 269 |  | 3.74
COc1cc(NCc2cc3cc(C(F)(F)F)ccc3[nH]c2=O)ccc1C#N | 76 | < 0.1 | 89 |  |  |  | 
COc1ccc2[nH]c(=O)c(CNc3ccc(C#N)c(OC)c3)cc2c1 | 21.6 | 0.67 (≈ 0.225 µg/mL) | 10.5 |  |  |  | 
